Test [1] has as its target T1, Cathepsin L (CTSL) (Homo sapiens, UniProt P07711).
T1 construct: commercial purified CTSL (BPS Biosciences kit); CTSL-Flag-Myc purified from HEK-293T for intrinsic fluorescence
The test can be described thus: Z-FR-AMC fluorogenic cleavage assay, pH […]; supported by intrinsic fluorescence of CTSL-Flag and CQ-X chase. In kind it is biochemical.

In test [2] the target is T2, NPC2 (Homo sapiens, UniProt P61916).
T2 construct: endogenous, A549 cells
T2 sequence (P61916 20-151): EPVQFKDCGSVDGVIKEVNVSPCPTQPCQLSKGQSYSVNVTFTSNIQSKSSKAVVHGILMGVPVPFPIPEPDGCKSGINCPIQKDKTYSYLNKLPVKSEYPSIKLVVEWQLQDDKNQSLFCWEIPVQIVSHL
Description: competition (chase) of CQ-X photo-cross-linking in cells. The test is classed as cell-based.

The structures appear in SMILES notation.

For orientation: IC50 means the concentration that inhibits the measured activity by half. Low values mean greater potency, high ones weaker potency.

T1 sequence (P07711 114-288): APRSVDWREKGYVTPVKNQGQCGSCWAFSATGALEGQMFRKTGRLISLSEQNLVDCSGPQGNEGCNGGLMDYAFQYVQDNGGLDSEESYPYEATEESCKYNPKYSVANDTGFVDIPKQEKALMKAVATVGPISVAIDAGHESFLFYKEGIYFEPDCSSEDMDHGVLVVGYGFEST
T1 sequence (P07711 292-333): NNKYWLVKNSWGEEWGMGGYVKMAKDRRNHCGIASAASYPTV

With `CCN(CC)CCCC(C)Nc1ccnc2cc(Cl)ccc12` (centres unmarked) [CQ, chloroquine], half-maximal inhibition in test [1] (IC50) was put at 181 µM. Moreover, in test [2], the “competition (chase) of CQ-X photo-cross-linking in cells” value was “The results confirmed that chloroquine could bind to NPC2 and CTSL”.

(Values after publication PMC10214525, “A Turn-On Fluorescent Amino Acid Sensor Reveals Chloroquine’s Effect on Cellular Amino Acids via Inhibiting Cathepsin L” (ACS Central Science, 2023).)
